Experimental data as given in EP0797567B1, “NOVEL AMINO ACID DERIVATIVES WITH IMPROVED MULTI-DRUG RESISTANCE ACTIVITY” (Vertex Pharmaceuticals Incorporated, priority 1994, dated 1996).

Tests used:
HL60/ADR cells = assay: Inhibition of MRP-mediated MDR: doxorubicin with or without compound, XTT viability; format: cell-based; conditions: Homo sapiens, 72 h, doxorubicin alone, no MDR inhibitor, control run of the compound in the same table row, 3 days, read-out: IC50 Dox alone
Description: We plated HL60/ADR cells in 96 well microtiter plates (4 x 10^4 cells/well). […] After culturing the cells for 3 days, their viability was quantitated using the XTT dye method to assess mitochondrial function. […] IC50 values are expressed in nM. In all assays the intrinsic antiproliferative or cytotoxic activity of the MDR inhibitors was also determined for HL60/ADR cells.

L1210VMDRC.06 = assay: MDR sensitization assay: doxorubicin antiproliferative activity with or without MDR inhibitor (MTT/XTT viability); format: cell-based, mouse; conditions: IC50 Dox / IC50 Dox + Inhibitor
Description: To assay the ability of the compounds according to this invention to increase the antiproliferative activity of a drug, cell lines which are known to be resistant to a particular drug may be used. These cell lines include, but are not limited to, the L1210, P388D, CHO and MCF7 cell lines. Alternatively, resistant cell lines may be developed. The cell line is exposed to the drug to which it is resistant, or to the test compound; cell viability is then measured and compared to the viability of cells which are exposed to the drug in the presence of the test compound. […]
Multi-drug resistance assays were conducted by plating cells (2 x 10^3, 1 x 10^4, or 5 x 10^4 cells/well) in 96 well microtiter plates and exposing them to a concentration range of doxorubicin ([…]) as described in Ford et al., Cancer Res., Vol. 50, 1748-1756. […] After culture for 3 days, the viability of cells was quantitated using MTT (Mossman) or XTT dyes to assess mitochondrial function. […]
Results were determined by comparison of the IC50 for doxorubicin alone to the IC50 for doxorubicin+ MDR inhibitor. An MDR ratio was calculated (IC50 Dox/ IC50 Dox + Inhibitor) and the integer value used for comparison of compound potencies.

Compound	IC50 (HL60/ADR cells) [µM]	MDR Ratio 0.5 µM (L1210VMDRC.06; 0.5 µM compound)	MDR Ratio 1.0 µM (L1210VMDRC.06; 1.0 µM compound)
COc1cccc2c1C(=O)c1c(O)c3c(c(O)c1C2=O)C[C@@](O)(C(=O)CO)C[C@@H]3O[C@H]1C[C@H](N)[C@H](O)[C@H](C)O1 [Dox, doxorubicin]	5	–	–
(S)-N-Benzyl-2-(methyl-(2-oxo-2-(3,4,5-trimethoxyphenyl)acetyl)amino)-3-phenyl-N-(3-(pyridin-4-yl)-1-(2-(pyridin-4-yl)-propyl)butyl)propionamide [Compound 12]	–	3.2	>9.2
